Holding throughout (test): NCI tumour cell line growth inhibition, 48 h
The subject of assay [1] is HCC-2998 colon.
Assay [2] concerns HL-60(TB) leukemia.
Assay [3] has as its system OVCAR-4 ovarian.
The test system of assay [4] is OVCAR-5 ovarian.
Assay [5] relates to SF-295 CNS.
For assay [6], the system named is SK-MEL-2 melanoma.
In assay [7] the test system is SK-OV-3 ovarian.
The subject of assay [8] is SN12C renal.
Assay [9] concerns SNB-75 CNS.
The test system of assay [10] is UO-31 renal.

Among the data in PubChem BioAssay (NCI) are TGI and GI50 values, retold here.

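Compound exposure: 48 hours, 5 concentrations, 96-well plates. Abbreviation: GI50, concentration required for 50% inhibition of growth. TGI denotes the concentration required for complete inhibition of growth.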

`C=C1C[C@@H]2CC[C@@]34C[C@H]5O[C@H]6[C@@H](O3)[C@H]3O[C@H](CC[C@@H]3O[C@H]6[C@H]5O4)CC(=O)C[C@@H]3[C@@H](OC)[C@@H](C[C@H](O)CN)O[C@H]3C[C@H]3O[C@@H](CC[C@@H]1O2)C[C@@H](C)C3=C`: the TGI is 0.096 µM in assay [1]; 0.00466 µM in assay [2]; greater than 1 µM in assay [3]; greater than 1 µM in [4]; 0.251 µM in assay [5]; greater than 0.167 µM in assay [6]. Moreover, the TGI in assay [7] is 0.286 µM; in assay [8], greater than 1 µM; in [9], greater than 1 µM; in assay [10], greater than 1 µM. In addition, the GI50 is 0.307 nM in assay [2], 2.51 nM in assay [4] and 0.46 nM in [9].

In the case of `O=P1(C(O)/C=C/c2ccccc2)N(Cc2ccccc2)[C@@H]2CCCC[C@H]2N1Cc1ccccc1` (stereo partly drawn), the TGI in assay [1] is 14.4 µM; in assay [2], 5.88 µM; in assay [3], 26.5 µM; in assay [4], 31.5 µM; in assay [5], 26.8 µM; in assay [6], 6.17 µM. The TGI in [7] was greater than 100 µM; in [8] it was 11.6 µM; in assay [9], 54.5 µM; in [10], 17.7 µM.

Take `O=C1CS/C(=N/N=C/c2cn(Cc3ccc(Cl)cc3Cl)c3ccccc23)N1`: the TGI was 92.3 µM in [1]; greater than 100 µM in assay [2]; greater than 100 µM in assay [3]; greater than 100 µM in assay [4]; greater than 100 µM in [5]; 74.7 µM in assay [6]. Besides, the TGI in [7] was greater than 100 µM; in [8], 70.9 µM; in assay [9], 54.4 µM; in [10], greater than 100 µM.

With `O=C1CC(c2ccccc2Cl)C2(C(=O)NC(=O)NC2=O)C(c2ccccc2Cl)C1` (stereo not drawn), the TGI in [1], in assay [2], in [3], in assay [4], in [5] and in assay [6] was greater than 100 µM throughout. For the same molecule, the TGI in [7], in assay [8], in assay [9] and in assay [10] was greater than 100 µM each time.

On to `Cc1ccc(S(=O)(=O)c2c(O)c3ccc(O)c(C)c3oc2=O)cc1`, for which the TGI in assay [1], in assay [2], in assay [3], in assay [4], in assay [5] and in [6] was greater than 100 µM each time. Further, the TGI in assay [7], in assay [8], in assay [9] and in [10] was greater than 100 µM each time.

With `O=C1c2cccnc2S(=O)(=O)N1c1ccc([N+](=O)[O-])cc1`, the TGI in assay [1], in [2], in assay [3], in [4], in assay [5] and in assay [6] was greater than 100 µM in each case. Further, the TGI in assay [7], in [8], in [9] and in [10] was greater than 100 µM each time.

`Cc1cn(CCCCCOC(=O)NC(CCCNC(N)=O)C(=O)O)c(=O)[nH]c1=O` (stereo not drawn): the TGI in assay [1], in [2], in assay [3], in assay [4], in [5] and in assay [6] was greater than 100 µM throughout. For the same molecule, the TGI in assay [7], in assay [8], in assay [9] and in assay [10] was greater than 100 µM in each case.

As for `O=C(OC12CC3CC(CC(C3)C1)C2)c1ccc(NCc2cc(O)ccc2O)cc1`, the TGI in assay [1] was 3.75 µM; in assay [2] it was 0.627 µM; in [3], 1.97 µM; in assay [4], 4.59 µM; in assay [5], 7.5 µM; in assay [6], 3.57 µM. Also, the TGI was found to be 13.2 µM in assay [7], 9.22 µM in assay [8], 2.68 µM in assay [9] and 2.06 µM in [10].

Take `C=C(C)[C@H]1CC(=O)/C(C)=C\CC/C(C)=C/CC[C@@]2(C)O[C@@H]2C1`: the TGI is 93.1 µM in [1]; 66.2 µM in [2]; 75.3 µM in assay [3]; 94.8 µM in assay [4]; 89.8 µM in assay [5]; greater than 100 µM in assay [6]. In addition, the TGI in assay [7] was 59 µM; in assay [8], 42.7 µM; in assay [9], greater than 100 µM; in assay [10] it was 48.4 µM.

In the case of `CC(=O)OC1CC2(O)C(CCC3(C)C(c4ccc(=O)oc4)CCC32O)C2(C)C1=CC(O)C1OC12` (stereo not drawn), the TGI in [1] worked out at 0.436 µM; in assay [2], 1.28 µM; in assay [3], 0.121 µM; in [4] it was 0.772 µM; in [5], 0.261 µM; in assay [6], 0.222 µM. Further, the TGI in assay [7] worked out at 0.252 µM; in [8], 0.882 µM; in [9], 0.3 µM; in assay [10] it was 0.323 µM.

Take `C[n+]1c(-c2ccc(NC(=O)c3ccc(C(=O)Nc4ccc(-c5cn6ccccc6[n+]5C)cc4)cc3)cc2)cn2ccccc21`: the TGI in assay [1], in assay [2], in assay [3], in [4], in [5] and in [6] was greater than 100 µM in each case. For the same molecule, the TGI in assay [7], in [8], in [9] and in [10] was greater than 100 µM throughout.
